Test results from the supplement of paper PMC10307832.

Key:
Assay in all cases: relative viability (nuclei count vs DMSO), 5 days (fraction); higher = more cells survive
[1] = system: PC-14
Method in brief: (§1)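 Dosing by pin tool came one day after lung cancer cell lines were seeded in 1536-well plates, using either one drug or a fixed anchor-drug dose plus five library-drug doses (not always all listed) in √10 steps. After 5 days, nuclei were counted on 4× images. Relative viability is treated-well nuclei count divided by vehicle-well nuclei count, and values are medians of duplicate plates.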

[2] = system: HCC-366
Method in brief: as §1

[3] = system: NCI-H647
Method in brief: as §1

[4] = system: EMC-BAC-2
Method in brief: as §1

[5] = system: NCI-H460
Method in brief: as §1

[6] = system: NCI-H522
Method in brief: as §1

[7] = system: A-427
Method in brief: as §1

[8] = system: NCI-H2405
Method in brief: as §1

[9] = system: NCI-H1734
Method in brief: as §1

[10] = system: SK-MES-1
Method in brief: as §1

[11] = system: COR-L23
Method in brief: as §1

[12] = system: 201T
Method in brief: as §1

Compound: Cc1csc(=NC2CCCCC2)n1/N=C/c1ccc(O)c(O)c1O [MIM1] + N=C(N)NC(=N)NCCc1ccccc1 [Phenformin] (partner 250 µM)
- relative viability ([1]; first compound 0.2 µM): 0.662
- relative viability ([1]; first compound 0.6325 µM): 0.575
- relative viability ([1]; first compound 2 µM): 0.558
- relative viability ([1]; first compound 6.325 µM): 0.328
- relative viability ([1]; first compound 20 µM): 0.237
- relative viability ([2]; first compound 0.2 µM): 0.598
- relative viability ([2]; first compound 2 µM): 0.574
- relative viability ([2]; first compound 6.325 µM): 0.357
- relative viability ([2]; first compound 20 µM): 0.0831
- relative viability ([3]; first compound 0.2 µM): 0.602
- relative viability ([3]; first compound 0.6325 µM): 0.431
- relative viability ([3]; first compound 6.325 µM): 0.4
- relative viability ([3]; first compound 20 µM): 0.0969
- relative viability ([4]; first compound 0.2 µM): 0.547
- relative viability ([4]; first compound 0.6325 µM): 0.455
- relative viability ([4]; first compound 2 µM): 0.515
- relative viability ([4]; first compound 6.325 µM): 0.48
- relative viability ([4]; first compound 20 µM): 0.208
- relative viability ([5]; first compound 0.2 µM): 0.497
- relative viability ([5]; first compound 0.6325 µM): 0.531
- relative viability ([5]; first compound 2 µM): 0.387
- relative viability ([5]; first compound 6.325 µM): 0.172
- relative viability ([5]; first compound 20 µM): 0.0325
- relative viability ([6]; first compound 0.2 µM): 0.697
- relative viability ([6]; first compound 0.6325 µM): 0.665
- relative viability ([6]; first compound 2 µM): 0.672
- relative viability ([6]; first compound 6.325 µM): 0.52
- relative viability ([6]; first compound 20 µM): 0.571
- relative viability ([7]; first compound 0.2 µM): 0.35
- relative viability ([7]; first compound 2 µM): 0.361
- relative viability ([7]; first compound 6.325 µM): 0.244
- relative viability ([7]; first compound 20 µM): 0.137
- relative viability ([8]; first compound 0.2 µM): 0.402
- relative viability ([8]; first compound 0.6325 µM): 0.375
- relative viability ([8]; first compound 2 µM): 0.385
- relative viability ([8]; first compound 6.325 µM): 0.386
- relative viability ([8]; first compound 20 µM): 0.371
- relative viability ([9]; first compound 0.2 µM): 0.395
- relative viability ([9]; first compound 0.6325 µM): 0.375
- relative viability ([9]; first compound 2 µM): 0.443
- relative viability ([9]; first compound 6.325 µM): 0.35
- relative viability ([9]; first compound 20 µM): 0.179
- relative viability ([10]; first compound 0.2 µM): 0.643
- relative viability ([10]; first compound 0.6325 µM): 0.665
- relative viability ([10]; first compound 2 µM): 0.617
- relative viability ([10]; first compound 6.325 µM): 0.484
- relative viability ([10]; first compound 20 µM): 0.41
- relative viability ([11]; first compound 0.2 µM): 0.434
- relative viability ([11]; first compound 0.6325 µM): 0.437
- relative viability ([11]; first compound 2 µM): 0.37
- relative viability ([11]; first compound 6.325 µM): 0.373
- relative viability ([11]; first compound 20 µM): 0.187
- relative viability ([12]; first compound 0.2 µM): 0.456
- relative viability ([12]; first compound 0.6325 µM): 0.414
- relative viability ([12]; first compound 2 µM): 0.451
